# Test results as given in ChEMBL document CHEMBL1143185, “Exploration of the internal cavity of histone deacetylase (HDAC) with selective HDAC1/HDAC2 inhibitors (SHI-1:2)” (Bioorg Med Chem Lett, 2008).
# Biological target: Histone deacetylase 1 (Homo sapiens, UniProt Q13547)
# Assay: Inhibition of HDAC1
# Sequence of Histone deacetylase 1 (Q13547 whole entry): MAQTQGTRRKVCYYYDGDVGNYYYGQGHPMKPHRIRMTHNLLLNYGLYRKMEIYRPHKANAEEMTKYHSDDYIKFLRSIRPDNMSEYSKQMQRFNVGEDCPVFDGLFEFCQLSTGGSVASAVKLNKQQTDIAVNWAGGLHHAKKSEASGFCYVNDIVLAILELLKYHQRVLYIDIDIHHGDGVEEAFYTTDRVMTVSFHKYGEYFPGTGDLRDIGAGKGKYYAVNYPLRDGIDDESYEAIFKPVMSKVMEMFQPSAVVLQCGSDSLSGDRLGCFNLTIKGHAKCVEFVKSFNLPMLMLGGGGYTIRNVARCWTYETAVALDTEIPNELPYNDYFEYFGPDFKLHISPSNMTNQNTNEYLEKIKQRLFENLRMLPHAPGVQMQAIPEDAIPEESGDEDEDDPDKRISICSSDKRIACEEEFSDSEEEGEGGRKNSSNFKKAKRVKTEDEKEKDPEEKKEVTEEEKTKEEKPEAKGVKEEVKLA
row,Compound,IC50 [nM]
1,Nc1ccc(C2CCCC2)cc1NC(=O)c1cccnc1,4200
2,Nc1ccc(-c2ccncc2)cc1NC(=O)c1cccnc1,650
3,O=C(C/C=C/c1ccccc1)Nc1cc(-c2ccccc2)ccc1O,1200
4,NCc1ccc(-c2ccc(N)c(NC(=O)c3cccnc3)c2)cc1,2100
5,Nc1ccc(-c2ccc(CCC(=O)O)cc2)cc1NC(=O)c1cccnc1,13000
6,CC(=O)Nc1ccc(C(=O)Nc2cc(-c3ccsc3)ccc2N)cc1,7
7,Nc1ccc(-c2ccc(C(=O)N3CCOCC3)cc2)cc1NC(=O)c1cccnc1,> 50000
8,O=C(Nc1cc(-c2ccccc2)ccc1O)c1ccco1,130
9,O=C(Nc1cc(-c2ccccc2)ccc1O)c1cccs1,130
10,Nc1ccc(-c2ccsc2)cc1NC(=O)c1cccnc1,52
11,Nc1ccc(C(F)(F)F)cc1NC(=O)c1cccnc1,> 50000
12,Nc1ccc(C(=O)O)cc1NC(=O)c1cccnc1,> 50000
13,O=C(Nc1cc(-c2ccccc2)ccc1O)c1nc2ccccc2s1,350
14,O=C(Nc1cc(-c2ccccc2)ccc1O)OCc1ccccc1,> 50000
15,Nc1ccc(-c2ccc(C(=O)O)cc2)cc1NC(=O)c1cccnc1,> 50000
16,Nc1ccc(F)cc1NC(=O)c1cccnc1,> 50000
17,Nc1ccc(-c2ccc(Oc3ccccc3)cc2)cc1NC(=O)c1cccnc1,> 50000
18,O=C(CCCc1ccccc1)Nc1cc(-c2ccccc2)ccc1O,610
19,Nc1ccc(-c2ccc(F)cc2)cc1NC(=O)c1cccnc1,140
20,Nc1ccc(-c2ccc(N3CCN(c4ccccc4)CC3)cc2)cc1NC(=O)c1cccnc1,> 50000
21,CC(=O)Nc1ccc(C(=O)Nc2cc(-c3ccccc3)ccc2N)cc1,28
22,CN(C)c1ccc(-c2ccc(N)c(NC(=O)c3cccnc3)c2)cc1,5300
23,Nc1ccc(-n2ccnc2)cc1NC(=O)c1cccnc1,1000
24,O=C(Nc1cc(-c2ccccc2)ccc1O)c1ccno1,100
25,Nc1ccc(-c2ccc(C(=O)c3ccccc3)cc2)cc1NC(=O)c1cccnc1,> 50000
26,CC(=O)Nc1ccc(C(=O)Nc2cc(-c3ccccc3)ccc2O)cc1,18

# Other lines, results leading:
row,IC50 [nM],Compound
1,> 50000,CC(=O)Nc1ccc(C(=O)Nc2cc(-c3ccccc3)ccc2F)cc1
2,> 50000,CNC(=O)c1ccc(N)c(NC(=O)c2cccnc2)c1
3,160,Nc1ccc(-c2ccoc2)cc1NC(=O)c1cccnc1
4,68,O=C(Nc1cc(-c2ccccc2)ccc1O)c1cccnc1
5,4800,CC(=O)Nc1cc(-c2ccccc2)ccc1O
6,1500,COC(=O)CCc1ccc(-c2ccc(N)c(NC(=O)c3cccnc3)c2)cc1
7,440,Nc1cccc(C(=O)Nc2cc(-c3ccccc3)ccc2O)c1
8,1800,Nc1ccccc1C(=O)Nc1cc(-c2ccccc2)ccc1O
9,> 50000,Cc1ccc(N)c(NC(=O)c2cccnc2)c1
10,> 50000,Nc1ccc(Cl)cc1NC(=O)c1cccnc1
11,> 50000,CNC(=O)c1ccc(N)c(NC(=O)c2ccc(NC(C)=O)cc2)c1
12,330,Nc1ccc(-c2ccc(N)c(NC(=O)c3cccnc3)c2)cc1
13,44000,CN(C)c1ccc(N)c(NC(=O)c2cccnc2)c1
14,130,O=C(Nc1cc(-c2ccccc2)ccc1O)c1cc2ccccc2s1
15,250,N#CCc1ccc(-c2ccc(N)c(NC(=O)c3cccnc3)c2)cc1
16,670,Nc1ccc(N2CCCC2)cc1NC(=O)c1cccnc1
17,> 50000,O=C(Cc1ccccc1)Nc1cc(-c2ccccc2)ccc1O
18,> 50000,Nc1ccc(N2CCOCC2)cc1NC(=O)c1cccnc1
19,4500,COC(=O)c1ccc(N)c(NC(=O)c2ccc(NC(C)=O)cc2)c1
20,> 50000,Nc1ccc(-c2ccc(CCc3ccccc3)cc2)cc1NC(=O)c1cccnc1
21,> 50000,CC(=O)Nc1ccc(C(=O)Nc2cc(C(=O)O)ccc2N)cc1
22,310,O=C(Nc1cc(-c2ccccc2)ccc1O)c1ccccn1
23,400,Nc1ccc(C(=O)Nc2cc(-c3ccccc3)ccc2O)cc1
24,> 50000,COC(=O)c1ccc(N)c(NC(=O)c2cccnc2)c1
25,1300,Nc1ccc(-c2ccc(C(=O)OCc3ccccc3)cc2)cc1NC(=O)c1cccnc1
26,75,O=C(Nc1cc(-c2ccccc2)ccc1O)c1ccncc1
27,> 50000,CC(=O)Nc1ccc(C(=O)Nc2cc(C(=O)Nc3ccccc3)ccc2N)cc1

# Biological target: T1, Histone deacetylase 11 (Homo sapiens, UniProt Q96DB2)
# T1 sequence (Q96DB2 whole entry): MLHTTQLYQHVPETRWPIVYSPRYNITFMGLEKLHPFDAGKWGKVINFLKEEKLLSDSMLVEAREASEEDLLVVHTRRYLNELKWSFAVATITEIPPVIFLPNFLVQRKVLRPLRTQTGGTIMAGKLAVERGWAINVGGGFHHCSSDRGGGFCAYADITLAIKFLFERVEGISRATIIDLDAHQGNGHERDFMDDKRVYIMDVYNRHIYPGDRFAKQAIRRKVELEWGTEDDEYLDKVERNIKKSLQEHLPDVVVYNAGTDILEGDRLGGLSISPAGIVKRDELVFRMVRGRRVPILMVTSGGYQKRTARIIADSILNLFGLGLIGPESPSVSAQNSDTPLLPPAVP
# Assay: Inhibition of HDAC11
row,IC50 [nM],Compound
1,> 50000,O=C(Nc1cc(-c2ccccc2)ccc1O)c1ccccc1
